How the values were obtained:
CBP (1-111) = biological target: T1, CBP (1-111) (Mus musculus, UniProt P45481); assay: Pull-down of CBP deletion constructs on COMPOUND 2 coated beads, competition with excess COMPOUND 1; assay type: binding; settings: CBP (1-111), (1-211), (1-351) in SW480 lysates, 150 μM COMPOUND 1
T1 construct: 6xHis (C); HSV tag (C); expressed in transfected cells

CBP = biological target: T2, CBP (Homo sapiens, UniProt Q92793); assay: COMPOUND 2 streptavidin-agarose affinity pull-down from SW480 nuclear extracts; assay type: binding; settings: SW480 nuclear extracts, 20 μM preincubation
T2 construct: endogenous in cells; host or cells: SW480 nuclear extract
T2 sequence (Q92793 whole entry): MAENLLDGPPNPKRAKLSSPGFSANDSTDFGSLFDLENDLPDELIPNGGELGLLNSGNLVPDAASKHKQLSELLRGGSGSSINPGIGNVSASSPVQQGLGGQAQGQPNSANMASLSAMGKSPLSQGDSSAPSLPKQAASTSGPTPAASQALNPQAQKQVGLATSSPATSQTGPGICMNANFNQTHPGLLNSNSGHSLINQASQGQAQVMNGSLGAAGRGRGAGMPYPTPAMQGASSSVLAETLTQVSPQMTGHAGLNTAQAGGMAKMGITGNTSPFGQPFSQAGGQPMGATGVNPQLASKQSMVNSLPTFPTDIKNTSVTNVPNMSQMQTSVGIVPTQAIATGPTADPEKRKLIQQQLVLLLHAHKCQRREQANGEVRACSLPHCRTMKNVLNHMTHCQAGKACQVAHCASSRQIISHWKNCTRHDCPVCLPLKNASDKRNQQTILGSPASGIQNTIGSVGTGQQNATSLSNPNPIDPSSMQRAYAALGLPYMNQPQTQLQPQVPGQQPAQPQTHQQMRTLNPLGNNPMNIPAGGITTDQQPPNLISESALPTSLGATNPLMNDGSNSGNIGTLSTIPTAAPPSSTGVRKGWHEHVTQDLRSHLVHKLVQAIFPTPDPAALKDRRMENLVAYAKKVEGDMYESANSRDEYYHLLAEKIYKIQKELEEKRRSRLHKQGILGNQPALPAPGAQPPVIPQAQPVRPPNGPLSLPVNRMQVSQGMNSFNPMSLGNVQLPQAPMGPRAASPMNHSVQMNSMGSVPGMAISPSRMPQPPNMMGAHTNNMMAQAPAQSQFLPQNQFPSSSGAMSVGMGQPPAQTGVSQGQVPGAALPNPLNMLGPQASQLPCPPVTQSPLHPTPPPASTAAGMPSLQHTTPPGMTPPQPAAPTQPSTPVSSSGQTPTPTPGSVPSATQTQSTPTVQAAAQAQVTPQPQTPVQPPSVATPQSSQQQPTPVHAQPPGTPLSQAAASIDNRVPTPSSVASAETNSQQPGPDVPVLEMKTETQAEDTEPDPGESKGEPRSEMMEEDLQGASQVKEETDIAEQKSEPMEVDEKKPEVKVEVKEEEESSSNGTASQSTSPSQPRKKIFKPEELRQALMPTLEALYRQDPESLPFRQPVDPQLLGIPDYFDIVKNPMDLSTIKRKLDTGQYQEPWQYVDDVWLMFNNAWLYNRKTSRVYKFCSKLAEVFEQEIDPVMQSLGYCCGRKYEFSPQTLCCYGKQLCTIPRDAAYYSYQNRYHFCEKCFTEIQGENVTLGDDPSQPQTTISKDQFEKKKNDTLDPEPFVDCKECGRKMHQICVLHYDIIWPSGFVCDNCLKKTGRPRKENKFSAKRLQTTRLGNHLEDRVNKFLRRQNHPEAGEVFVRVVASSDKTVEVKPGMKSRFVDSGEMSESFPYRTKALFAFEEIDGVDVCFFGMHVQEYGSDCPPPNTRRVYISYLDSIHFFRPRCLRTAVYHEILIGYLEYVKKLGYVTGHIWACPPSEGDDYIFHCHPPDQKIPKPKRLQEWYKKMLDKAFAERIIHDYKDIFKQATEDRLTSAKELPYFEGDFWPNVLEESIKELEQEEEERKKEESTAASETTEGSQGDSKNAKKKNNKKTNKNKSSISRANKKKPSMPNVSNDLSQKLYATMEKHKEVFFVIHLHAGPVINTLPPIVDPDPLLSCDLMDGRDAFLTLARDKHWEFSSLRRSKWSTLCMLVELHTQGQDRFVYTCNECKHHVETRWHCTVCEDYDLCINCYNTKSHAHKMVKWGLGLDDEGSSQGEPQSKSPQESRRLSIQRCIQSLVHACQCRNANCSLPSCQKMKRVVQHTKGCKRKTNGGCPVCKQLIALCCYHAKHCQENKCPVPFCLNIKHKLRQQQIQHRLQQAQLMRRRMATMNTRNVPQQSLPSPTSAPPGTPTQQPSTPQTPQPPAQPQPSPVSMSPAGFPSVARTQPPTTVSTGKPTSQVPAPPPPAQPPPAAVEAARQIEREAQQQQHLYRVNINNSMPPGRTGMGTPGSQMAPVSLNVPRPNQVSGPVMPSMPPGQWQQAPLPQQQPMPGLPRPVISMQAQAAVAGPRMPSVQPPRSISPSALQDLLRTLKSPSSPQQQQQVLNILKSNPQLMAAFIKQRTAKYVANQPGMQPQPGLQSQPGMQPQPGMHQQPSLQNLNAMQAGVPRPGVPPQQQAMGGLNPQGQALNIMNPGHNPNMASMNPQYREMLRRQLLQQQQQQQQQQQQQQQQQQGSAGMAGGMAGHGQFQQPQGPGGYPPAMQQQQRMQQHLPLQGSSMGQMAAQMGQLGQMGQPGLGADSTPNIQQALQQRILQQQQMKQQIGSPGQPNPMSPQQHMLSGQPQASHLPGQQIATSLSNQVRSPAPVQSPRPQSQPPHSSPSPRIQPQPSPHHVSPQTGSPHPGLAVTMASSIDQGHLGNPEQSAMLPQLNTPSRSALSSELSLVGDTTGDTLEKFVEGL
Method: FIG. 1. COMPOUND 1 inhibits β-catenin/TCF transcription. • A(i) and A(ii). Structures of COMPOUND 1, COMPOUND 2, COMPOUND 3, COMPOUND 4, and COMPOUND 5. • B(i) and B(ii). […] SW480 cells (10^5), (FIG. 1B(i)), were transfected with β-catenin/TCF luciferase construct. Cells were treated with COMPOUND 1 (1-64 μM). 24 hours post treatment lysates were prepared and subjected to dual luciferase assay. The data is represented in different form in FIG. 1B(ii). • C. COMPOUND 1 has no effect on NFAT reporter construct. Stably transfected Jurkat cells, right panel, with an NFAT reporter construct, were stimulated with PMA (10 ng/ml)/lonomycin (1 μg/ml), and treated with COMPOUND 1 (0.781-50 μM). 24 hours post treatment lysates were prepared and subjected to dual luciferase assay. All experiments were performed in duplicate and the values plotted as means +/−standard deviation. • D. CBP is the molecular target of COMPOUND 1. Nuclear extracts of SW480 cells were incubated with streptavidin-agarose beads coated with COMPOUND 2 (25 μM). Beads were washed 3 times and the eluted were subjected to gel electrophoresis and immunoblotting, with anti-CBP antibodies. […] The lysates were desalted using G-25 1 cc columns (Pharmacia) to remove the unbound ^14C-labeled-COMPOUND 1, and ^14C-labeled-COMPOUND 1 incorporation was measured. […]

T1 sequence (P45481 1-110): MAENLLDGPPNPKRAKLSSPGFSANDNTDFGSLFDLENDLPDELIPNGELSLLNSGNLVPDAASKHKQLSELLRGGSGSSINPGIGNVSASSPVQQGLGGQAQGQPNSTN

## O=C1C(Cc2ccc(O)cc2)N2C(=O)CCN(C(=O)NCc3ccccc3)C2CN1Cc1cccc2ccccc12 (centres unmarked) [COMPOUND 1]
CBP (1-111)
  Competition of CBP fragment binding to COMPOUND 2 beads by excess COMPOUND 1: strongly competed away
CBP
  Effect of preincubation with COMPOUND 1 on CBP binding to COMPOUND 2: blocked the binding of CBP

— patent publication US7531320B2, “Modulation of β-catenin/TCF-activated transcription” (priority 2003, dated 2009)
